Measured values reported in patent publication US9695156B2, “Compounds for the treatment and prevention of infections” (Brown University, priority 2012, dated 2017).

Assays:
[1] = system: JCPyV; test: Dose dependent inhibition of infection, flow cytometric scoring, SVG-A cells; format: cell-based, JC polyomavirus; details: for inhibition of JCPyV infection (FIG. 8C): 100 μM, SVG-A cells pre-incubated, flow cytometry
[2] = system: JCPyV; test: Endocytosis assay, trypan blue quenching, confocal microscopy; format: cell-based, JC polyomavirus; details: 100 μM Retro-2, 30 μM chloropromazine; fixed at 2 h
[3] = system: SV40; test: ER trafficking assay, colocalization with PDI; format: cell-based, simian virus 40
[4] = system: SV40; test: VP2 release assay; format: cell-based, simian virus 40; details: 100 μM Retro-2, 500 ng/mL brefeldin A; MOI 10, 10 hpi
[5] = system: JCPyV; test: VP2 release assay; format: cell-based, JC polyomavirus; details: 100 μM Retro-2, 500 ng/mL brefeldin A; MOI 10, 10 hpi
[6] = system: BKPyV; test: VP2 release assay; format: cell-based, BK polyomavirus; details: 100 μM Retro-2, 500 ng/mL brefeldin A; MOI 10, 10 hpi
[7] = system: CTxB; format: cell-based
[8] = system: cells; details: cited from earlier work
[9] = system: BKPyV; test: ER trafficking assay, colocalization with PDI; format: cell-based, BK polyomavirus
[10] = system: JCPyV; test: ER trafficking assay, colocalization with PDI; format: cell-based, JC polyomavirus
[11] = system: SV40; test: Endocytosis assay, trypan blue quenching, confocal microscopy; format: cell-based, simian virus 40; details: 100 μM Retro-2, 100 μM nystatin; fixed at 2 h
[12] = system: CTxB; format: cell-based; remark: listed apart in the source
[13] = system: BKPyV; test: Endocytosis assay, trypan blue quenching, confocal microscopy; format: cell-based, BK polyomavirus; details: 100 μM Retro-2, 100 μM nystatin; fixed at 2 h
[14] = Conversion (cyclization) of Retro-2 in solution; format: physicochemical
[15] = system: JCPyV; test: Time course (time of addition) experiment, SVG-A cells; format: cell-based, JC polyomavirus
[16] = system: SV40; test: Time course (time of addition) experiment, Vero cells; format: cell-based, simian virus 40
[17] = system: BKPyV; test: Binding of labeled virus to Vero cells, flow cytometry; format: cell-based, BK polyomavirus; details: 100 μM, 1 h pretreatment
[18] = system: SVG-A or Vero cells; format: cell-based
Method: The viability of SVG-A or Vero cells were first tested after treatment with Retro-2^cycl. Cells were treated with Retro-2^cycl at the indicated concentrations for 72 h before viability was assessed using the CellTiter 96 AQueous One Solution Cell Proliferation Assay. As a control, cells were treated with either 0.04% DMSO or with 10% SDS. Error bars denote standard deviation.

[19] = system: BKPyV; test: Multicycle growth assay and reinfection assay in established infection, Vero cells; format: cell-based, BK polyomavirus
[20] = system: BKPyV; test: Dose dependent inhibition of infection, flow cytometric scoring, Vero cells; format: cell-based, BK polyomavirus; details: Betapolyomavirus hominis, VP1 at 72 h, compared to vehicle control, read-out: calculated EC50, decrease in percentage of cells expressing VP1
[21] = system: SV40; test: as above; format: cell-based, simian virus 40; details: Betapolyomavirus macacae, VP1 at 72 h, compared to vehicle control, read-out: calculated EC50, decrease in percentage of cells expressing VP1
[22] = system: Ad5-GFP pseudovirus; format: cell-based, Adenovirus Type 5; details: Vero cells pre-treated, GFP positive cells by flow cytometry
[23] = system: Stx2; details: cited from earlier work
[24] = system: BKPyV; test: Time course (time of addition) experiment, Vero cells; format: cell-based, BK polyomavirus
[25] = system: SV40; test: Binding of labeled virus to Vero cells, flow cytometry; format: cell-based, simian virus 40; details: 100 μM, 1 h pretreatment
[26] = system: SV40; test: Multicycle growth assay and reinfection assay in established infection, Vero cells; format: cell-based, simian virus 40
[27] = system: JCPyV; test: Multicycle growth assay and reinfection assay in established infection, SVG-A cells; format: cell-based, JC polyomavirus
[28] = 100 μM, re-fed daily, 12 days post infection, MOI 0.01

## Cc1ccc(CNc2ccccc2C(=O)Nc2ccccc2)s1 [Retro-2^red]
[1]
  inhibition of JCPyV infection (FIG. 8C): significantly less active

## CN(C)CCCN1c2ccccc2Sc2ccc(Cl)cc21 [chloropromazine, reference compound]
[2]
  inhibition of endocytosis: inhibits endocytosis

## C[C@H]1CCC/C=C/[C@@H]2C[C@H](O)C[C@H]2[C@H](O)/C=C/C(=O)O1 [brefeldin A, reference compound]
[3]
  colocalization with the ER protein PDI: reduced, although this reduction was not significant
[4]
  cells exposing VP2: significant reduction in the number of cells with VP2 exposed
[5]
  cells exposing VP2: significant reduction in the number of cells with VP2 exposed
[6]
  cells exposing VP2: significant reduction in the number of cells with VP2 exposed
[7]
  colocalization with the ER protein PDI: significantly reduces colocalization
[8]
  cytotoxicity to cells: highly cytotoxic
[9]
  colocalization with the ER protein PDI: significantly reduces colocalization
[1]; 20 ng/mL, SVG-A cells, positive control
  reduction in infectivity: 96%
[10]
  colocalization with the ER protein PDI: significantly reduces colocalization

## CCc1ccc(C2Nc3ccccc3C(=O)N2c2ccccc2)s1 (stereo not drawn) [BU62382A4]
[1]; preliminary SAR, ethyl instead of methyl at position 5 of thiophenyl ring
  potency against polyomavirus infectivity relative to Retro-2^cycl: does not negatively impact potency

## C[C@@H]1[C@H](O)[C@@H](C)/C=C/C=C/CC/C=C/C=C/C=C/C=C/C(O[C@H]2O[C@H](C)[C@@H](O)[C@H](N)[C@@H]2O)CC2O[C@](O)(CC(O)C(O)CCC(O)CC(O)CC(O)CC(=O)O[C@H]1C)CC(O)C2C(=O)O (stereo partly drawn) [nystatin, reference compound]
[11]
  inhibition of endocytosis: inhibits endocytosis
[12]
  inhibition of endocytosis: inhibits endocytosis
[13]
  inhibition of endocytosis: inhibits endocytosis

## Cc1ccc(/C=N/c2cccc(C(=O)Nc3ccccc3)c2)s1 [Retro-2^meta]
[3]
  colocalization with the ER protein PDI: significant colocalization
[7]
  colocalization with the ER protein PDI: significant colocalization
[9]
  colocalization with the ER protein PDI: significant colocalization
[1]
  inhibition of JCPyV infection (FIG. 8C): significantly less active
[10]
  colocalization with the ER protein PDI: significant colocalization

## Cc1ccc(/C=N/c2ccccc2C(=O)Nc2ccccc2)s1 [Retro-2, 2-(((5-methylthiophen-2-yl)methylene)amino)-N-phenylbenzamide]
[14]
  conversion to Retro-2^cycl in solution: rapidly converts

## Cc1ccc(C2Nc3ccccc3C(=O)N2c2ccccc2)s1 (stereo not drawn) [Retro-2^cycl, 2-(5-methylthiophen-2-yl)-3-phenyl-2,3-dihydroquinazolin-4(1H)-one]
[3]
  colocalization with the ER protein PDI: reduced, although this reduction was not significant
[4]
  cells exposing VP2: significant reduction of cells exposing VP2
[15]
  infectivity regained when compound is added late: greater than 80%
  time of addition after which most of the inhibitory effect is lost: > 14 h
  time of addition at which infectivity is still significantly reduced: up to 4 hours post infection (hpi)
[16]
  infectivity regained when compound is added late: greater than 80%
  time of addition after which most of the inhibitory effect is lost: > 12 h
  time of addition at which infectivity is still significantly reduced: up to 4 hours post infection (hpi)
[17]
  binding to cells compared to vehicle control: slight decreases
[18]
  cell viability at effective doses: do not negatively affect cell viability
[19]; [28]
  inhibition of viral spread (percentage of infected cells vs vehicle control): 89%
[19]; cultures treated with 100 μM
  infectious virions in tissue culture supernatant (reinfection of naive cells): significantly less infectious virions
[20]
  EC50: 61.2 µM
[11]
  inhibition of endocytosis: does not inhibit endocytosis
[5]
  cells exposing VP2: significant reduction of cells exposing VP2
[12]
  inhibition of endocytosis: does not inhibit endocytosis
[21]
  EC50: 58.6 µM
[22]
  inhibition of Ad5-GFP transduction: did not inhibit transduction
[23]
  protection of cells from toxin: able to protect cells
[2]
  inhibition of endocytosis: does not inhibit endocytosis
[24]
  infectivity regained when compound is added late: greater than 80%
  time of addition after which most of the inhibitory effect is lost: > 12 h
  time of addition at which infectivity is still significantly reduced: up to 4 hours post infection (hpi)
[25]
  binding to cells compared to vehicle control: slight decreases
[6]
  cells exposing VP2: significant reduction of cells exposing VP2
[7]
  colocalization with the ER protein PDI: significantly reduces colocalization
[13]
  inhibition of endocytosis: does not inhibit endocytosis
[26]; [28]
  inhibition of viral spread (percentage of infected cells vs vehicle control): 84%
[26]; cultures treated with 100 μM
  infectious virions in tissue culture supernatant (reinfection of naive cells): significantly less infectious virions
[9]
  colocalization with the ER protein PDI: significantly reduces colocalization
[1]; JC polyomavirus, SVG-A cells, VP1 at 72 h, compared to vehicle control, read-out: calculated EC50, decrease in percentage of cells expressing VP1
  EC50: 28.4 µM
[27]; [28]
  inhibition of viral spread (percentage of infected cells vs vehicle control): 90.5%
[27]; cultures treated with 100 μM
  infectious virions in tissue culture supernatant (reinfection of naive cells): significantly less infectious virions
[27]; phase contrast microscopy at 15 days post infection, vs DMSO
  cytopathic effect in JCV infected SVG-A cells: reduces cytopathic effect
[10]
  co-localization of JCV-633 with Rab5 endosomes: increases co-localization
  colocalization with the ER protein PDI: significantly reduces colocalization
